Laboratory results: the NIST ThermoML archive (doi:10.1021/je050092d)

Experiment: molar heat capacity at constant pressure
Settings: 101.33 kPa, Vacuum adiabatic calorimetry

CCCCCCCCCCCCCCCCCC(=O)OCC(COC(=O)CCCCCCCCCCCCCCCCC)OC(=O)CCCCCCCCCCCCCCCCC [glycerol trioctadecanoate]
Settings	molar heat capacity at constant pressure [J/K/mol]
9.6 K, Crystal	10.7
9.65 K, Crystal	8.023
9.71 K, Crystal	12.48
10.85 K, Crystal	22.29
11.58 K, Crystal	22.29
12.51 K, Crystal	26.74
13.59 K, Crystal	30.31
13.96 K, Crystal	32.98
15.41 K, Crystal	39.23
15.56 K, Crystal	43.68
17.3 K, Crystal	62.4
17.41 K, Crystal	50.81
19.33 K, Crystal	69.54
19.45 K, Crystal	65.97
21.54 K, Crystal	79.34
21.58 K, Crystal	82.02
23.71 K, Crystal	98.06
23.86 K, Crystal	100.74
25.95 K, Crystal	115
26.19 K, Crystal	116.78
28.25 K, Crystal	135.5
28.56 K, Crystal	137.29
30.62 K, Crystal	156.9
30.93 K, Crystal	149.77
30.99 K, Crystal	158.68
33.29 K, Crystal	184.54
35.42 K, Crystal	205.04
37.51 K, Crystal	215.74
39.73 K, Crystal	224.65
41.97 K, Crystal	239.81
44.25 K, Crystal	262.99
46.55 K, Crystal	273.68
48.96 K, Crystal	294.19
51.41 K, Crystal	312.02
53.88 K, Crystal	332.52
56.39 K, Crystal	354.81
58.93 K, Crystal	372.64
61.51 K, Crystal	394.03
64.13 K, Crystal	415.43
66.78 K, Crystal	434.15
69.45 K, Crystal	451.98
72.14 K, Crystal	468.03
74.85 K, Crystal	484.07
77.59 K, Crystal	501.01
80.34 K, Crystal	514.38
83.1 K, Crystal	530.43
85.71 K, Crystal	540.24
85.88 K, Crystal	545.59
88.61 K, Crystal	554.5
88.67 K, Crystal	558.07
91.44 K, Crystal	566.09
91.47 K, Crystal	572.33
94.27 K, Crystal	578.57
97.11 K, Crystal	585.7
99.95 K, Crystal	597.29
102.8 K, Crystal	610.66
105.65 K, Crystal	612.45
108.5 K, Crystal	616.01
111.36 K, Crystal	627.6
114.22 K, Crystal	640.08
117.09 K, Crystal	651.67
119.95 K, Crystal	661.48
122.82 K, Crystal	671.28
125.7 K, Crystal	680.2
128.58 K, Crystal	690.9
131.46 K, Crystal	729.23
134.35 K, Crystal	729.23
137.23 K, Crystal	716.75
140.13 K, Crystal	728.34
143.02 K, Crystal	739.93
145.92 K, Crystal	759.54
148.83 K, Crystal	769.35
151.73 K, Crystal	778.26
154.64 K, Crystal	790.74
157.55 K, Crystal	793.42
160.46 K, Crystal	818.38
163.37 K, Crystal	826.4
166.29 K, Crystal	837.99
169.2 K, Crystal	848.69
172.12 K, Crystal	856.71
175.04 K, Crystal	870.08
177.95 K, Crystal	878.11
178.91 K, Metastable crystal	900.39
180.87 K, Crystal	890.59
181.6 K, Metastable crystal	918.22
183.79 K, Crystal	901.29
184.26 K, Metastable crystal	942.29
186.7 K, Crystal	921.79
186.88 K, Metastable crystal	974.39
189.48 K, Metastable crystal	985.98
189.62 K, Crystal	938.73
192.06 K, Metastable crystal	995.78
192.54 K, Crystal	957.45
194.63 K, Metastable crystal	998.46
195.45 K, Crystal	972.6
197.18 K, Metastable crystal	1005.6
198.37 K, Crystal	976.17
199.71 K, Metastable crystal	1029.7
201.29 K, Crystal	997.57
202.23 K, Metastable crystal	1053.7
204.21 K, Crystal	1008.3
204.74 K, Metastable crystal	1074.2
207.13 K, Crystal	1014.5
207.23 K, Metastable crystal	1089.4
209.71 K, Metastable crystal	1083.1
210.05 K, Crystal	1023.4
212.17 K, Metastable crystal	1091.2
212.96 K, Crystal	1029.7
214.62 K, Metastable crystal	1110.8
215.88 K, Crystal	1037.7
217.06 K, Metastable crystal	1127.7
218.8 K, Crystal	1044.8
219.48 K, Metastable crystal	1147.3
221.72 K, Crystal	1048.4
221.9 K, Metastable crystal	1157.1
224.3 K, Metastable crystal	1170.5
224.64 K, Crystal	1057.3
226.69 K, Metastable crystal	1185.7
227.55 K, Crystal	1067.1
229.06 K, Metastable crystal	1200.8
230.47 K, Crystal	1080.5
231.43 K, Metastable crystal	1217.8
233.39 K, Crystal	1094.7
233.79 K, Metastable crystal	1238.3
236.13 K, Metastable crystal	1256.1
236.3 K, Crystal	1107.2
238.46 K, Metastable crystal	1271.3
239.22 K, Crystal	1121.5
240.79 K, Metastable crystal	1288.2
242.14 K, Crystal	1134
243.1 K, Metastable crystal	1307.8
245.06 K, Crystal	1149.1
245.41 K, Metastable crystal	1327.4
247.71 K, Metastable crystal	1339.9
247.98 K, Crystal	1165.2
250 K, Metastable crystal	1358.6
250.9 K, Crystal	1177.6
252.28 K, Metastable crystal	1376.4
253.82 K, Crystal	1192.8
254.56 K, Metastable crystal	1397.8
256.74 K, Crystal	1208
256.83 K, Metastable crystal	1413
259.09 K, Metastable crystal	1426.4
259.67 K, Crystal	1222.2
261.34 K, Metastable crystal	1444.2
262.6 K, Crystal	1238.3
263.59 K, Metastable crystal	1461.1
265.53 K, Crystal	1254.3
265.83 K, Metastable crystal	1479
268.07 K, Metastable crystal	1495
268.46 K, Crystal	1271.3
270.3 K, Metastable crystal	1515.5
271.39 K, Crystal	1285.5
272.53 K, Metastable crystal	1532.5
274.33 K, Crystal	1301.6
274.75 K, Metastable crystal	1553
276.96 K, Metastable crystal	1577.9
277.27 K, Crystal	1327.4
279.18 K, Metastable crystal	1590.4
280.21 K, Crystal	1339
281.39 K, Metastable crystal	1610
283.16 K, Crystal	1355
283.59 K, Metastable crystal	1629.6
285.8 K, Metastable crystal	1647.5
286.11 K, Crystal	1371.1
288 K, Metastable crystal	1670.6
289.07 K, Crystal	1387.1
290.2 K, Metastable crystal	1689.4
292.03 K, Crystal	1412.1
292.39 K, Metastable crystal	1716.1
294.59 K, Metastable crystal	1733
294.99 K, Crystal	1428.2
296.78 K, Metastable crystal	1763.3
297.32 K, Crystal	1434.4
297.96 K, Crystal	1448.7
298.4 K, Crystal	1436.2
298.97 K, Metastable crystal	1787.4
299.84 K, Crystal	1454.9
300.94 K, Crystal	1466.5
301.16 K, Metastable crystal	1815.9
301.82 K, Crystal	1473.6
303.79 K, Crystal	1492.3
304.05 K, Crystal	1488.8
305.75 K, Crystal	1508.4
306.72 K, Crystal	1514.6
307.7 K, Crystal	1523.5
308.94 K, Crystal	1529.8
309.65 K, Crystal	1536
311.17 K, Crystal	1544
311.6 K, Crystal	1552.1
313.39 K, Crystal	1561
313.55 K, Crystal	1569.9
315.49 K, Crystal	1579.7
315.61 K, Crystal	1576.1
317.43 K, Crystal	1598.4
317.83 K, Crystal	1598.4
319.37 K, Crystal	1627.8
320.05 K, Crystal	1624.3
321.32 K, Crystal	1642.1
322.28 K, Crystal	1645.7
323.27 K, Crystal	1659.9
324.5 K, Crystal	1666.2
325.23 K, Crystal	1682.2
326.72 K, Crystal	1692.9
327.2 K, Crystal	1700.1
328.95 K, Crystal	1713.4
329.17 K, Crystal	1721.4
351.37 K, Liquid	1971.1
353.63 K, Liquid	1975.5
355.89 K, Liquid	1981.8
358.16 K, Liquid	1986.2
360.45 K, Liquid	1992.5
362.74 K, Liquid	1997.8
365.05 K, Liquid	2004.9
367.37 K, Liquid	2007.6
369.71 K, Liquid	2015.6
